In US20060270589A1, “Carotenoids, carotenoid analogs, or carotenoid derivatives for the treatment of visual disabilities” (priority 2005, published 2006):

How the values were obtained:
[1] = type: physicochemical
Method: (§1) 30.13 mg of 3 was added to 1 mL USP-purified water. The sample was rotated for 2 h and then centrifuged for 5 min. After centrifuging, solid was visible in the bottom of the tube. A 125 μL aliquot of the solution was then diluted to 25 mL. The sample was analyzed by UV/Vis spectroscopy at 436 nm, and the absorbance was compared to a standard curve compiled from four standards of known concentration. The concentration of the original supernatant was calculated to be 2.85 mg/mL and the absorptivity was 36.94 AU mL/cm mg. Slight error may have been introduced by the small size of the original aliquot.
as §1, with “Next, 30.80” for “30.13”, “8” for “3”, “411” for “436”, “29.27” for “2.85”, “2.90” for “36.94”

[2] = tested on: superoxide anion generation from phorbol-ester (PMA)-stimulated PMNs; assay: Direct superoxide anion scavenging by EPR spectroscopy (DEPMPO spin-trap) in isolated human neutrophil assay; type: cell-based; conditions: 40% EtOH, 0.1 mM; EtOH vehicle background 5%; listed as lutein diphosphate, sodium salt
Method: Human polymorphonuclear leukocytes (PMNs) were isolated from freshly sampled venous blood of a single volunteer by Percoll density gradient centrifugation as described previously. Briefly, each 10 mL of whole blood was mixed with 0.8 mL of 0.1 M EDTA and 25 mL saline. The diluted blood was then layered over 9 mL Percoll at a specific density of 1.080 g/mL. After centrifugation at 400 g for 20 min at 20° C., the plasma, mononuclear cell, and Percoll layers were removed. Erythrocytes were subsequently lysed by addition of 18 mL ice-cold water for 30 s, followed by 2 mL of 10× PIPES buffer (25 mM PIPES, 110 mM NaCl, and 5 mM KCl, titrated to pH 7.4 with NaOH). […] Afterward, PMNs were counted by light microscopy on a hemocytometer. […]
All EPR measurements were performed using a Bruker ER 300 EPR spectrometer operating at X-band with a TM110 cavity as previously described. The microwave frequency was measured with a Model 575 microwave counter (EIP Microwave, Inc., San Jose, Calif.). […]
Instrument settings used in the spin-trapping experiments were as follows: modulation amplitude, 0.32 G; time constant, 0.16 s; scan time, 60 s; modulation frequency, 100 kHz; microwave power, 20 mW; and microwave frequency, 9.76 GHz. The samples were placed in a quartz EPR .at cell, and spectra were recorded. The component signals in the spectra were identified and quantified as reported previously.

## 3,3′-Diphosphoryloxy-β,ε-carotene sodium salt [Compound 8]
[1]
  Increase in aqueous dispersibility versus the disuccinate sodium salt: > 10 fold
[2]
  Mean (% inhibition) of superoxide anion signal: (mean % inhibition = 18%) was increased above background scavenging (5%)
